Results as given in patent US20230279025A1, “KRAS G12D INHIBITORS” (Mirati Therapeutics, Inc., priority 2020, published 2023).

How the values were obtained:
KRas G12D [1] = biological target: T1, KRas G12D (Homo sapiens (Human), UniProt P01116, G12D); experiment: KRas G12D Surface Plasmon Resonance (SPR) Binding Assay; conditions: Biacore T200, immobilized biotinylated KRAS protein, 1:1 binding model
Description: Briefly, 1L of 1.05X HBS-Mg buffer (262.5 mM Bioultra Hepes, pH 7.5, 157.5 mM NaCl, 105 mM MgCl2, 0.525 mM TCEP, 0.0305% Brij-35) was prepared and filter sterilized using a 0.22 μm bottle top filter. Approximately 50 mL of 1.05X HBS-Mg buffer was removed and saved for future dilutions. A 50 mL aliquot of DMSO (Sigma Aldrich DMSO Lot. #SHBK2079) was added and continued to stir for 10 minutes, creating the final 1.0X HBS-Mg buffer (250 mM Bioultra Hepes pH 7.5, 150 mM NaCl, 100 mM MgCl2, 0.5 mM TCEP, 0.03% Brij-35).
Biacore T200 instrument was primed using 1.0X HBS-Mg buffer before docking a GE Streptavidin (SA) chip and then primed two additional times prior to beginning the immobilization step. All immobilized protein mixtures were created using 3-5 mg/mL Biotinylated Avidin-tagged KRAS protein using the following immobilization settings: SA chip type, 1 flow cells per cycle, 720 second contact time, and 5 ul/min flow rate. Normalization of the detector was also performed during the immobilization step using the GE BiaNormalize solution.
All compounds were diluted to 10 mM in 100% DMSO prior to being diluted 20X in 1.05X buffer. Another 10X dilution was created using 1.0X buffer prior to performing a series of 3X dilutions to create a compound concentration curve using the following assay settings: 20C analysis temperature, General Settings=10 Hz data collection rate and multi-detection; Assay Steps=all set to LMW kinetics; Cycle Types=LMW kinetics (60 s contact time, 120 s dissociation time, 100 ul/min flow rate, extra wash after injection with 50% DMSO, flow path 1,2,3,4); Flow path detection=2-1, 4-3). Data evaluation was performed using the Biacore T200 Evaluation software and data fit to 1:1 binding model. ND=not determined.
Target sequence in this assay (P01116-2 other isoform, or with tags, fused parts or gaps G12D): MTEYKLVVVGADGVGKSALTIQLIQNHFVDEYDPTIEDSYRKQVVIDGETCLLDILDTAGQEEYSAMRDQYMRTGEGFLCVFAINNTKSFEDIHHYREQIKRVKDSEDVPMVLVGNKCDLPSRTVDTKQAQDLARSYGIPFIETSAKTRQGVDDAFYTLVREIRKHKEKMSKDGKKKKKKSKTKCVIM

KRas G12D [2] = biological target: T1, KRas G12D; experiment: KRas G12D Binding Assay (TR-FRET displacement of Cy5 labelled tracer); conditions: GDP-loaded KRAS G12D (amino acids 1:169), 60 minute incubation at 22° C.
Description: After a 60 minute incubation at 22° C., the reaction was measured using a PerkinElmer EnVision multimode plate reader via TR-FRET dual wavelength detection, and the percent of control (POC) calculated using a ratiometric emission factor. […] The POC values were fit to a 4-parameter logistic curve and the IC50 value was determined as the concentration where the curve crosses 50 POC.
ND stands for “not determined.”
Target sequence in this assay (P01116 other isoform, or with tags, fused parts or gaps G12D): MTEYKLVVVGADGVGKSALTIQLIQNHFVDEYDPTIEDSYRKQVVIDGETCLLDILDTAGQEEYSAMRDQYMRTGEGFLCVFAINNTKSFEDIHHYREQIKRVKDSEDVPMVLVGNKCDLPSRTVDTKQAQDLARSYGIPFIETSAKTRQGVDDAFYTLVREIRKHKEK

Structure (SMILES) | Kd (KRas G12D [1]) [nM] | IC50 (KRas G12D [2]) [nM]
CN1C[C@H](F)C[C@H]1COc1nc(N2C[C@H]3CC[C@@H](C2)N3)c2cnc(-c3cc(O)cc4ccccc34)c(F)c2n1 [Example 16, 4-(4-((1R,5S)-3,8-diazabicyclo[3.2.1]octan-3-yl)-8-fluoro-2-(((2S,4R)-4-fluoro-1-methylpyrrolidin-2-yl)methoxy)pyrido[4,3-d]pyrimidin-7-yl)naphthalen-2-ol] | 31.3 | 54.1
C[C@H](CN(C)C)Oc1nc(N2C[C@H]3CC[C@@H](C2)N3)c2cnc(-c3cc(O)cc4ccccc34)c(F)c2n1 [Example 17, 4-(4-((1R,5S)-3,8-diazabicyclo[3.2.1]octan-3-yl)-2-(((R)-1-(dimethylamino)propan-2-yl)oxy)-8-fluoropyrido[4,3-d]pyrimidin-7-yl)naphthalen-2-ol] | 2210 | 666
CN(C)CCOc1nc(N2C[C@H]3CC[C@@H](C2)N3)c2cnc(-c3cc(O)cc4ccccc34)c(F)c2n1 [Example 18, 4-(4-((1R,5S)-3,8-diazabicyclo[3.2.1]octan-3-yl)-2-(2-(dimethylamino)ethoxy)-8-fluoropyrido[4,3-d]pyrimidin-7-yl)naphthalen-2-ol] | 3.1 | 76.8
CN1CCC[C@H]1COc1nc(N2C[C@H]3CC[C@@H](C2)N3)c2cnc(-c3cccc4ccc(F)cc34)c(F)c2n1 [Example 19, 4-((1R,5S)-3,8-diazabicyclo[3.2.1]octan-3-yl)-8-fluoro-7-(7-fluoronaphthalen-1-yl)-2-(((S)-1-methylpyrrolidin-2-yl)methoxy)pyrido[4,3-d]pyrimidine] | 665 | 122
CN1CCC[C@H]1COc1nc(N2C[C@H]3CC[C@@H](C2)N3)c2cnc(-c3cccc4ccccc34)c(F)c2n1 [Example 20, 4-((1R,5S)-3,8-diazabicyclo[3.2.1]octan-3-yl)-8-fluoro-2-(((S)-1-methylpyrrolidin-2-yl)methoxy)-7-(naphthalen-1-yl)pyrido[4,3-d]pyrimidine] | 967 | 692
CN1CCC[C@H]1COc1nc(N2C[C@H]3CC[C@@H](C2)N3)c2cnc(-c3cccc4c3CCCC4)c(F)c2n1 [Example 21, 4-((1R,5S)-3,8-diazabicyclo[3.2.1]octan-3-yl)-8-fluoro-2-(((S)-1-methylpyrrolidin-2-yl)methoxy)-7-(5,6,7,8-tetrahydronaphthalen-1-yl)pyrido[4,3-d]pyrimidine] | 448 | 263
Oc1cc(-c2ncc3c(N4C[C@H]5CC[C@@H](C4)N5)nc(OCCCN4CCOCC4)nc3c2F)c2ccccc2c1 [Example 22, 4-(4-((1R,5S)-3,8-diazabicyclo[3.2.1]octan-3-yl)-8-fluoro-2-(3-morpholinopropoxy)pyrido[4,3-d]pyrimidin-7-yl)naphthalen-2-ol] | 19.6 | 50.3
Oc1cc(-c2ncc3c(N4C[C@H]5CC[C@@H](C4)N5)nc(OCCN4CCOCC4)nc3c2F)c2ccccc2c1 [Example 25, 4-(4-((1R,5S)-3,8-diazabicyclo[3.2.1]octan-3-yl)-8-fluoro-2-(2-morpholinoethoxy)pyrido[4,3-d]pyrimidin-7-yl)naphthalen-2-ol] | 270 | 338
CC(C)N1CCC[C@H]1COc1nc(N2C[C@H]3CC[C@@H](C2)N3)c2cnc(-c3cccc4cccc(Cl)c34)c(F)c2n1 [Example 29, 4-((1R,5S)-3,8-diazabicyclo[3.2.1]octan-3-yl)-7-(8-chloronaphthalen-1-yl)-8-fluoro-2-(((S)-1-isopropylpyrrolidin-2-yl)methoxy)pyrido[4,3-d]pyrimidine] | 170 | 160
Fc1c(-c2cncc3cccc(Cl)c23)ncc2c(N3C[C@H]4CC[C@@H](C3)N4)nc(OCC34CCCN3CCC4)nc12 [Example 33, 4-((1R,5S)-3,8-diazabicyclo[3.2.1]octan-3-yl)-7-(5-chloroisoquinolin-4-yl)-8-fluoro-2-((tetrahydro-1H-pyrrolizin-7a(5H)-yl)methoxy)pyrido[4,3-d]pyrimidine bis(2,2,2-trifluoroacetate)] | 71.7 | 21.1
CO[C@@H]1C[C@@H](COc2nc(N3C[C@H]4CC[C@@H](C3)N4)c3cnc(-c4cccc5cccc(Cl)c45)c(F)c3n2)N(C)C1 [Example 34, 4-((1R,5S)-3,8-diazabicyclo[3.2.1]octan-3-yl)-7-(8-chloronaphthalen-1-yl)-8-fluoro-2-(((2S,4R)-4-methoxy-1-methylpyrrolidin-2-yl)methoxy)pyrido[4,3-d]pyrimidine] | 119 | 135
OCC(CO)COc1nc(N2C[C@H]3CC[C@@H](C2)N3)c2cnc(-c3cccc4cccc(Cl)c34)c(F)c2n1 [Example 35, 2-(((4-((1R,5S)-3,8-diazabicyclo[3.2.1]octan-3-yl)-7-(8-chloronaphthalen-1-yl)-8-fluoropyrido[4,3-d]pyrimidin-2-yl)oxy)methyl)propane-1,3-diol] | 1380 | 475
Oc1cc(-c2ncc3c(N4C[C@H]5CC[C@@H](C4)N5)nc(N4CC(O)C4)nc3c2F)c2ccccc2c1 [Example 37, 1-(4-((1R,5S)-3,8-diazabicyclo[3.2.1]octan-3-yl)-8-fluoro-7-(3-hydroxynaphthalen-1-yl)pyrido[4,3-d]pyrimidin-2-yl)azetidin-3-ol bis(2,2,2-trifluoroacetate)] | 494 | 405
Oc1cc(-c2ncc3c(N4C[C@H]5CC[C@@H](C4)N5)nc(OCCCC(F)(F)F)nc3c2F)c2ccccc2c1 [Example 38, 4-(4-((1R,5S)-3,8-diazabicyclo[3.2.1]octan-3-yl)-8-fluoro-2-(4,4,4-trifluorobutoxy)pyrido[4,3-d]pyrimidin-7-yl)naphthalen-2-ol] | 750 | 174
COCCN1CCC(Oc2nc(N3C[C@H]4CC[C@@H](C3)N4)c3cnc(-c4cccc5ccccc45)c(F)c3n2)CC1 [Example 39, 4-((1R,5S)-3,8-diazabicyclo[3.2.1]octan-3-yl)-8-fluoro-2-((1-(2-methoxyethyl)piperidin-4-yl)oxy)-7-(naphthalen-1-yl)pyrido[4,3-d]pyrimidine] | 67800 | > 10000
Oc1cc(-c2ncc3c(N4C[C@H]5CC[C@@H](C4)N5)nc(OC[C@@H]4CC5CCN4C5)nc3c2F)c2ccccc2c1 [Example 40, 4-(2-(((2S)-1-azabicyclo[2.2.1]heptan-2-yl)methoxy)-4-((1R,5S)-3,8-diazabicyclo[3.2.1]octan-3-yl)-8-fluoropyrido[4,3-d]pyrimidin-7-yl)naphthalen-2-ol] | 1.7 | 4
COCCCN1CCC(Oc2nc(N3C[C@H]4CC[C@@H](C3)N4)c3cnc(-c4cc(O)cc5ccccc45)c(F)c3n2)CC1 [Example 41, 4-(4-((1R,5S)-3,8-diazabicyclo[3.2.1]octan-3-yl)-8-fluoro-2-((1-(3-methoxypropyl)piperidin-4-yl)oxy)pyrido[4,3-d]pyrimidin-7-yl)naphthalen-2-ol] | 181 | 76.7
CO[C@@H]1C[C@@H](COc2nc(N3C[C@H]4CC[C@@H](C3)N4)c3cnc(-c4cc(O)cc5ccccc45)c(F)c3n2)N(C)C1 [Example 42, 4-(4-((1R,5S)-3,8-diazabicyclo[3.2.1]octan-3-yl)-8-fluoro-2-(((2S,4R)-4-methoxy-1-methylpyrrolidin-2-yl)methoxy)pyrido[4,3-d]pyrimidin-7-yl)naphthalen-2-ol] | 5.6 | 3.1
